Reference: US20260242373A1, “NBD1 MODULATORS AND METHODS OF USING THE SAME” (Sionna Therapeutics Inc., priority 2023, published 2026)

Test system: NBD1
Experiment: Aggregation analysis of NBD1 thermal stability by differential static light scattering (DSLS)
Assay type: binding, Human
Conditions: 100 μM compound; ΔTagg versus DMSO control
Description: Purified recombinant NBD1 was produced using previously described methods (A. Schmidt, J. L. Mendoza, P. J. Thomas (2011) Biochemical and Biophysical Approaches to Probe CFTR Structure (365-376) M. D. Amaral, K. Kunzelmann (eds.), Cystic Fibrosis, Methods in Molecular Biology 741, Springer Science+Business Media). The effect of test compounds on thermal stability of NBD1 was evaluated by differential static light scattering (DSLS) using the Harbinger Stargazer-384 instrument (Epiphyte Three, Toronto, Canada). Test compounds were dissolved and diluted to desired concentrations in 100% DMSO. The compounds or DMSO controls (100 nL) were stamped into wells of a […] low volume optical plate (Corning Inc., Corning, NY) using the Echo 555 acoustic liquid handler (Labcyte Inc., San Jose, CA).
NBD1 protein was diluted to 0.2 mg/ml in S200 buffer (50 mM Tris-HCl, 150 mM NaCl, 5 mM MgCl2, 2 mM ATP, 2 mM DTT, pH7.6) containing 1% glycerol. 10 uL of protein solution was aliquoted into the 384-well plate harboring the test compounds and 10 uL mineral oil was overlayed onto the protein solution, using the epMotion robotic liquid handler (Eppendorf North America, Hauppauge, NY). After placing into the Stargazer instrument, the plate was heated at 1° C. per minute to 70° C. Images were captured from 25° C. to 70° C. every 0.5° C. At the end of the experiment run, instrument software integrated image files and analyzed data automatically. A […] regression curve was generated for each well, representing the increase in light scattering over time. A temperature of aggregation (Tagg) was calculated based on the inflection point of the curve. To better compare data across experiments the average Tagg for DMSO control wells was calculated and subtracted from values for wells containing compounds to obtain a “ΔTagg” value. These ΔTagg values reflect stabilizing efficacy of the compounds.

SMILES	DSLS NBD1/3D Human Stability delta-T (° C.) @ 100 (μM)
O[C@H](Cc1cncs1)c1c[nH]c(-c2cccc(Oc3ccc4[nH]ccc4c3)c2)n1 (single isomer, unassigned) [Compound 23]	B (B: 4-8° C.)
O[C@@H](Cc1cncs1)c1c[nH]c(-c2cccc(Oc3ccc4[nH]ccc4c3)c2)n1 (single isomer, unassigned) [Compound 24]	C (C: ≤4° C.)
C[C@H](c1nc(-c2cc(Oc3c(F)cc4[nH]ccc4c3F)ccc2F)n(C)n1)c1ccc(CCC(=O)O)s1 (single isomer, unassigned) [Compound 45]	A (A: T ≥8° C.)
Cc1c(Oc2ccc(F)c(-c3nc(Cc4csc(CCC(=O)O)n4)c[nH]3)c2)c(F)cc2[nH]ccc12 [Compound 1, 3-(4-((2-(2-fluoro-5-((6-fluoro-4-methyl-1H-indol-5-yl)oxy)phenyl)-1H-imidazol-4-yl)methyl)thiazol-2-yl)propanoic acid]	B (B: 4-8° C.)
O=C(O)CCc1ncc(Cc2cnc(-c3cc(Oc4c(F)cc5[nH]ccc5c4F)ccc3F)[nH]2)s1 [Compound 2, 3-(5-((2-(5-((4,6-difluoro-1H-indol-5-yl)oxy)-2-fluorophenyl)-1H-imidazol-5-yl)methyl)thiazol-2-yl)propanoic acid]	B (B: 4-8° C.)
NC(=O)CCc1ncc(Cc2cnc(-c3cc(Oc4c(F)cc5[nH]ccc5c4F)ccc3F)[nH]2)s1 [Compound 3, 3-(5-((2-(5-((4,6-difluoro-1H-indol-5-yl)oxy)-2-fluorophenyl)-1H-imidazol-5-yl)methyl)thiazol-2-yl)propanamide]	C (C: ≤4° C.)
O=C(O)CCn1ccc(Cc2cnc(-c3cc(Oc4c(F)cc5[nH]ccc5c4F)ccc3F)[nH]2)n1 [Compound 5, 3-(3-((2-(5-((4,6-difluoro-1H-indol-5-yl)oxy)-2-fluorophenyl)-1H-imidazol-5-yl)methyl)-1H-pyrazol-1-yl)propanoic acid]	B (B: 4-8° C.)
Cc1c(Oc2ccc(F)c(-c3ccn(Cc4cnc(CCC(N)=O)s4)n3)c2)c(F)cc2[nH]ccc12 [Compound 6]	C (C: ≤4° C.)
Cc1c[nH]c2cc(F)c(Oc3ccc(F)c(-c4ccn(Cc5cnc(CCC(N)=O)s5)n4)c3)cc12 [Compound 7, 3-(5-((3-(2-fluoro-5-((6-fluoro-3-methyl-1H-indol-5-yl)oxy)phenyl)-1H-pyrazol-1-yl)methyl)thiazol-2-yl)propanamide]	C (C: ≤4° C.)
Cc1ccc(Cc2nnc(-c3cccc(Oc4cc5cc[nH]c5cn4)c3)[nH]2)s1 [Compound 8, 5-(3-(5-((5-methylthiophen-2-yl)methyl)-4H-1,2,4-triazol-3-yl)phenoxy)-1H-pyrrolo[2,3-c]pyridine]	C (C: ≤4° C.)
Cc1cc(Cc2nnc(-c3cccc(Oc4cc5cc[nH]c5cn4)c3)[nH]2)cs1 [Compound 9, 5-(3-(5-((5-methylthiophen-3-yl)methyl)-4H-1,2,4-triazol-3-yl)phenoxy)-1H-pyrrolo[2,3-c]pyridine]	C (C: ≤4° C.)
c1cc(Oc2ccc3[nH]ccc3c2)cc(-c2nnc(Cc3ccsc3)[nH]2)c1 [Compound 11, 5-(3-(5-(thiophen-3-ylmethyl)-4H-1,2,4-triazol-3-yl)phenoxy)-1H-indole]	C (C: ≤4° C.)
c1cc(Oc2ccc3[nH]ccc3c2)cc(-c2nnc(Cc3nccs3)[nH]2)c1 [Compound 12, 2-((5-(3-((1H-indol-5-yl)oxy)phenyl)-4H-1,2,4-triazol-3-yl)methyl)thiazole]	C (C: ≤4° C.)
c1cc(Oc2ccc3[nH]ccc3c2)cc(-c2nnc(Cc3cscn3)[nH]2)c1 [Compound 13, 4-((5-(3-((1H-indol-5-yl)oxy)phenyl)-4H-1,2,4-triazol-3-yl)methyl)thiazole]	C (C: ≤4° C.)
c1cc(Oc2ccc3[nH]ccc3c2)cc(-c2nnc(Cc3cncs3)[nH]2)c1 [Compound 14, 5-((5-(3-((1H-indol-5-yl)oxy)phenyl)-4H-1,2,4-triazol-3-yl)methyl)thiazole]	C (C: ≤4° C.)
Cc1csc(Cc2nnc(-c3cccc(Oc4ccc5[nH]ccc5c4)c3)[nH]2)n1 [Compound 15, 2-((5-(3-((1H-indol-5-yl)oxy)phenyl)-4H-1,2,4-triazol-3-yl)methyl)-4-methylthiazole]	C (C: ≤4° C.)

SMILES	DSLS NBD1/3D Human Stability delta-T (° C.) @ 100 (μM)
Cc1cnc(Cc2nnc(-c3cccc(Oc4ccc5[nH]ccc5c4)c3)[nH]2)s1 [Compound 16, 2-((5-(3-((1H-indol-5-yl)oxy)phenyl)-4H-1,2,4-triazol-3-yl)methyl)-5-methylthiazole]	C (C: ≤4° C.)
Cc1nc(Cc2nnc(-c3cccc(Oc4ccc5[nH]ccc5c4)c3)[nH]2)cs1 [Compound 17, 4-((5-(3-((1H-indol-5-yl)oxy)phenyl)-4H-1,2,4-triazol-3-yl)methyl)-2-methylthiazole]	C (C: ≤4° C.)
Cc1ncc(Cc2nnc(-c3cccc(Oc4ccc5[nH]ccc5c4)c3)[nH]2)s1 [Compound 18, 5-((5-(3-((1H-indol-5-yl)oxy)phenyl)-4H-1,2,4-triazol-3-yl)methyl)-2-methylthiazole]	B (B: 4-8° C.)
Clc1ccc(Cc2n[nH]c(-c3cccc(Oc4cc5cc[nH]c5cn4)c3)n2)s1 [Compound 19, 5-(3-(3-((5-chlorothiophen-2-yl)methyl)-1H-1,2,4-triazol-5-yl)phenoxy)-1H-pyrrolo[2,3-c]pyridine]	C (C: ≤4° C.)
Cc1ccc(C(O)c2c[nH]c(-c3cccc(Oc4ccc5[nH]ccc5c4)c3)n2)s1 (stereo not shown) [Compound 20, (2-(3-((1H-indol-5-yl)oxy)phenyl)-1H-imidazol-4-yl)(5-methylthiophen-2-yl)methanol]	B (B: 4-8° C.)
OC(c1c[nH]c(-c2cccc(Oc3ccc4[nH]ccc4c3)c2)n1)c1nccs1 (stereo not shown) [Compound 21, (2-(3-((1H-indol-5-yl)oxy)phenyl)-1H-imidazol-4-yl)(thiazol-2-yl)methanol]	B (B: 4-8° C.)
Cc1cnc(C(O)c2c[nH]c(-c3cccc(Oc4ccc5[nH]ccc5c4)c3)n2)s1 (stereo not shown) [Compound 22, (2-(3-((1H-indol-5-yl)oxy)phenyl)-1H-imidazol-4-yl)(5-methylthiazol-2-yl)methanol]	B (B: 4-8° C.)
Cn1cc(Cc2nnc(-c3cccc(Oc4ccc5[nH]ccc5c4)c3)[nH]2)cn1 [Compound 25, 5-(3-(5-((1-methyl-1H-pyrazol-4-yl)methyl)-4H-1,2,4-triazol-3-yl)phenoxy)-1H-indole]	C (C: ≤4° C.)
Cn1nccc1C(O)c1cnc(-c2cccc(Oc3ccc4[nH]ccc4c3)c2)[nH]1 (stereo not shown) [Compound 26, (2-(3-((1H-indol-5-yl)oxy)phenyl)-1H-imidazol-5-yl)(1-methyl-1H-pyrazol-5-yl)methanol]	C (C: ≤4° C.)
Cn1cc(C(O)c2cnc(-c3cccc(Oc4ccc5[nH]ccc5c4)c3)[nH]2)cn1 (stereo not shown) [Compound 27, (2-(3-((1H-indol-5-yl)oxy)phenyl)-1H-imidazol-5-yl)(1-methyl-1H-pyrazol-4-yl)methanol]	B (B: 4-8° C.)
Cn1cc(Cc2cnc(-c3cccc(Oc4ccc5[nH]ccc5c4)c3)[nH]2)cn1 [Compound 28, 5-(3-(5-((1-methyl-1H-pyrazol-4-yl)methyl)-1H-imidazol-2-yl)phenoxy)-1H-indole]	C (C: ≤4° C.)
Cn1nccc1C(O)c1cnc(-c2cccc(Oc3ccc4[nH]cnc4c3)c2)[nH]1 (stereo not shown) [Compound 29, (2-(3-((1H-benzo[d]imidazol-5-yl)oxy)phenyl)-1H-imidazol-5-yl)(1-methyl-1H-pyrazol-5-yl)methanol]	C (C: ≤4° C.)
Cn1cc(C(O)c2nnc(-c3cccc(Oc4ccc5[nH]ccc5c4)c3)[nH]2)cn1 (stereo not shown) [Compound 30, (5-(3-((1H-indol-5-yl)oxy)phenyl)-4H-1,2,4-triazol-3-yl)(1-methyl-1H-pyrazol-4-yl)methanol]	B (B: 4-8° C.)
Cn1cc(Cc2nnc(-c3cccc(Oc4ccc5[nH]ccc5n4)c3)[nH]2)cn1 [Compound 31, 5-(3-(5-((1-methyl-1H-pyrazol-4-yl)methyl)-4H-1,2,4-triazol-3-yl)phenoxy)-1H-pyrrolo[3,2-b]pyridine]	C (C: ≤4° C.)
Cn1cc(C(O)c2cnc(-c3cccc(Oc4ccc5[nH]ccc5n4)c3)[nH]2)cn1 (stereo not shown) [Compound 32, (2-(3-((1H-pyrrolo[3,2-b]pyridin-5-yl)oxy)phenyl)-1H-imidazol-5-yl)(1-methyl-1H-pyrazol-4-yl)methanol]	C (C: ≤4° C.)
